For one assay, the system named is NCI-H1975. Kind of assay: Antiproliferative activity against human H1975 cells assessed as inhibition of cell growth incubated for 72 hrs by CCK-8 assay. The conditions noted are these: NCI-H1975, 72 h.
Another assay concerns A549. Put plainly: Antiproliferative activity against human A549 cells assessed as inhibition of cell growth incubated for 72 hrs by CCK-8 assay. The conditions noted are these: A549, 72 h.
The subject of the next assay is HeLa. Put plainly: Antiproliferative activity against human HeLa cells assessed as reduction in cell viability after 24 hrs by MTT assay. The class given is functional, cell-based. (Tetrazolium assays rely on reduction of a dye to a coloured formazan, in cell work by metabolically active cells.)

Structures are written as SMILES.

What is called IC50 is the concentration that inhibits the measured activity by half. As to `CN1c2c(ccc3cc4c(cc23)OCO4)-c2ccc3c(c2C1C#N)OCO3` (centres undefined), the IC50 stood at 0.79 µM in the assay with NCI-H1975 and 0.96 µM in the assay on A549.

`CN1c2c(ccc3cc4c(cc23)OCO4)-c2ccc3c(c2C1NC1CCCC1)OCO3` (centres undefined): the concentration for half-maximal inhibition (IC50) in the assay with NCI-H1975 is 1.57 µM; in the assay on A549 it was 1.97 µM.

For `CC1c2c(ccc3c2OCO3)-c2ccc3cc4c(cc3c2N1C)OCO4` (centres undefined), the IC50 in the assay on NCI-H1975 and with A549 was above 30 µM in each case.

Take `CCCNC1c2c(ccc3c2OCO3)-c2ccc3cc4c(cc3c2N1C)OCO4` (centres undefined): the results for the IC50 in the assay on NCI-H1975 and in the assay on A549 were 1 µM and 1.48 µM, respectively.

For the compound `CCN1Cc2c(ccc3c2OCO3)-c2ccc3cc4c(cc3c21)OCO4`, the IC50 with NCI-H1975 and in the assay with A549 was above 30 µM throughout.

As to `Cn1c(=O)c2c3c(ccc2c2ccc4cc5c(cc4c21)OCO5)OCO3`, the IC50 with NCI-H1975 and in the assay with A549 was above 30 µM each time.

For the compound `CCNC1c2c(ccc3c2OCO3)-c2ccc3cc4c(cc3c2N1C)OCO4` (centres undefined), the IC50 in the assay on NCI-H1975 was found to be 0.94 µM; in the assay on A549, 1.25 µM.

For the compound `COC1c2c(ccc3c2OCO3)-c2ccc3cc4c(cc3c2N1C)OCO4` (centres undefined), the 50% inhibitory concentration (IC50) was determined as 1.17 µM in the assay with NCI-H1975 and 1.59 µM in the assay with A549.

For the compound `c1cc2c(cnc3c4cc5c(cc4ccc23)OCO5)c2c1OCO2`, the IC50 with NCI-H1975 and with A549 was above 30 µM throughout.

For `C[n+]1cc2c3c(ccc2c2ccc4cc5c(cc4c21)OCO5)OCO3` [SANGUINARIUM CHLORIDE], the IC50 with NCI-H1975 came to 1.32 µM; in the assay on HeLa, 2.43 µM; in the assay with A549 it was 1.59 µM.

For `CC(C)NC1c2c(ccc3c2OCO3)-c2ccc3cc4c(cc3c2N1C)OCO4` (centres undefined), the IC50 in the assay on NCI-H1975 was found to be 0.96 µM; in the assay on A549, 1.46 µM.

On to `CN1c2c(ccc3cc4c(cc23)OCO4)-c2ccc3c(c2C1NCc1ccccc1)OCO3` (centres undefined), for which the IC50 in the assay with NCI-H1975 was determined as 3.13 µM; in the assay on A549, 4.35 µM.

Consider `CN1Cc2c(ccc3c2OCO3)-c2ccc3cc4c(cc3c21)OCO4` [DIHYDROSANGUINARINE], for which the half-maximal inhibitory concentration (IC50) in the assay on NCI-H1975 was 19.1 µM; in the assay with A549 it was above 30 µM.

`CCCN1Cc2c(ccc3c2OCO3)-c2ccc3cc4c(cc3c21)OCO4`: the IC50 in the assay on NCI-H1975 and with A549 was above 30 µM each time.

These data come from ChEMBL document CHEMBL4699398, “The synthesis and biological evaluation of sanguinarine derivatives as anti-non-small cell lung cancer agents” (RSC Med Chem, 2020).
